Source: PubChem BioAssay (NCI)
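Compound exposure: 48 hours, 5 concentrations, 96-well plates. TGI denotes the concentration required for complete inhibition of growth.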

Test system: P388 leukemia
Assay: NCI tumour cell line growth inhibition, 48 h

`CN(CO)c1nc(N(C)CO)nc(N(C)CO)n1` was tested. Which TGI did it give?
Its TGI is 23.8 µM.

Test system: P388/ADR leukemia
Assay: NCI tumour cell line growth inhibition, 48 h

Which TGI does the source give for `CN(CO)c1nc(N(C)CO)nc(N(C)CO)n1` here?
The TGI was 69.1 µM.

Test system: RXF-631 renal
Assay: NCI tumour cell line growth inhibition, 48 h

For `COC(=O)/C=C(C)/C=C/c1c(C)c(C(C)=O)c(C)n1C`, which TGI is on record?
The TGI was over 100 µM.

How did the TGI turn out when `O=[N+]([O-])c1cc(C(F)(F)F)cc2n[se]nc12` was run?
The TGI was 30.8 µM.

`CCCCCCCCCCCCCP(=O)(OC)OC` was tested. Which TGI did it give?
Its TGI is 32.5 µM.

With `C=C1CCCC2OC(OC)CCC12` (centres undefined) as the compound, how does the TGI read?
The TGI was over 100 µM.

With `COc1ccc(C(=O)Nc2ccn(CCOC(=O)c3ccc(OC)cc3)c(=O)n2)cc1` as the compound, how does the TGI read?
The TGI was over 100 µM.

Which TGI does the source give for `CCCCCC1CC=CC(NC(=O)OCc2ccccc2)C1/C=C/CCCC1OCCO1` (centres undefined) here?
The TGI was over 100 µM.

For `CCCCCCCCC1C(C)c2c([nH]c3ccccc23)C2C(=O)N(c3ccccc3)C(=O)C21` (centres undefined), which TGI is on record?
Its TGI is 14.2 µM.

`CCN(CC)CCCNc1nccc2c(C)c3[nH]c4ccncc4c(=O)c3cc12` was tested. Which TGI did it give?
The TGI was 22 µM.

For `CCCCCCCCCCCCCC(=O)NO`, which TGI is on record?
Its TGI is over 62.5 µM.

How did the TGI turn out when `c1ccc(N2CCN(CCCN3CCc4c([nH]c5ccccc45)C3c3cccnc3)CC2)cc1` (centres undefined) was run?
Its TGI is 98.2 µM.

`CN(CCc1ccccn1)/[N+]([O-])=N/O` (tested in a mixture with another compound) was tested. Which TGI did it give?
The TGI was over 100 µM.

Test system: SN12K1 renal
Assay: NCI tumour cell line growth inhibition, 48 h

For `CN(CO)c1nc(N(C)CO)nc(N(C)CO)n1`, which TGI is on record?
The TGI was 14.1 µM.
